Data on 1 compound can be found in patent US11352371B2, “Thienopyrimidine derivatives as ACC inhibitors and uses thereof” (Gilead Sciences, Inc., priority 2019, dated 2022).

The subject of one series is HepG2 cells. The series can be described thus: In vitro De Novo Lipogenesis (DNL) assay, 13C-acetate incorporation into palmitic acid. Format: cell-based. To be noted: Homo sapiens, 1 hour preincubation, 24 hours with 10 mM 13C-labeled acetate. A digest of the protocol: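 HepG2 cells were preincubated with compound for 1 h, then given 10 mM 13C-acetate for 24 h at 37 °C. Lipids were saponified with KOH/ethanol at 70 °C, and palmitate carrying 3–7 13C was quantified by RapidFire-QTOF MS. This signal was normalized to oleate and plotted against compound concentration.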

Series [1] is described as follows: Rat liver/plasma ratio determination. Particulars: male SD rats, single oral dose 5 mg/kg or 10 mg/kg. Format: in vivo, male Sprague-Dawley (SD) rats. Here is the method:
Liver to plasma (L/P) ratios of certain example compounds were determined in male Sprague-Dawley (SD) rats 2 hours and 24 hours after their administration.
The in vivo phases of the rat L/P ratio determinations for example compounds were conducted at Covance Laboratories (Madison, Wis.) or Charles River Laboratories (Worcester, Wash.). Animals were housed and handled in accordance with the Guide for the Care and Use of Laboratory Animals, Institute of Laboratory Animal Resources. The protocols were reviewed and approved by Institutional Animal Care and Use Committees (IACUC). Male Sprague-Dawley (SD) rats weighing approximately 300 g were fasted overnight prior to dosing and up to 4 hours after dosing. Each example compound was dosed at a single dose at 5 mg/kg or 10 mg/kg orally by gavage to male SD rats (n=3 rats/group). The aqueous formulation contained ethyl alcohol and polyethylene glycol 300. Approximately 100 μL plasma and 0.5 g liver samples were collected from each animal either 2 hours or 24 hours after dosing. The liver samples were homogenized by hard tissue homogenizer probes (Omni International, Kennesaw, Ga.) with 4× extraction buffer. For LC-MS/MS analysis, plasma and liver samples were prepared through protein precipitation extraction and analyzed on a Scitex API 5500 or 6500 LC-MS/MS instrument (Applied Biosystems, Foster City, Calif.). Analyte was eluted on a 1.7 μm 50×2.1 mm Acquity UPLC BEH C18 column (Waters, Milford, Mass.) using mobile phase containing 0.1% formic acid and a linear gradient from 55% to 95% acetonitrile at a flow rate of 800 μL/min. A liver/plasma ratio for each compound was calculated using the liver and plasma concentrations at the corresponding time point (2 hours or 24 hours). Noncompartmental pharmacokinetic parameters were calculated using Phoenix 32 (Pharsight Corporation, Mountain View, Calif.).
To assess the liver loading potential of the compounds, rat liver/plasma ratios (Rat L/P Ratio) values were determined for example compounds and are listed below in Table 1 for 2 hour and 24 hour timepoints (Rat L/P Ratio (2h/24h)).

Usually pEC50 stands for the negative decadic logarithm of the EC50, by convention in mol/L. Higher therefore signals a small EC50.

Structures are written as SMILES. pEC50: −log10 of the molar value.

`COc1ccccc1[C@H](Cn1c(=O)n(C(C)(C)C(=O)NS(=O)(=O)C2(C)CC2)c(=O)c2c(C)c(-c3ncco3)sc21)O[C@@H]1C[C@H]2CC[C@@H](C1)O2` [Example 1, 2-(1-((R)-2-(((1R,3s,5S)-8-oxabicyclo[3.2.1]octan-3-yl)oxy)-2-(2-methoxyphenyl)ethyl)-5-methyl-6-(oxazol-2-yl)-2,4-dioxo-1,4-dihydrothieno[2,3-d]pyrimidin-3(2H)-yl)-2-methyl-N-((1-methylcyclopropyl)sulfonyl)propanamide]: the pEC50 in the series on HepG2 cells is 9.00. Also, in series [1] (liver to plasma concentration 2 hours after dosing), the “L/P Ratio (2 h)” value was 520. In addition, the “L/P Ratio (24 h)” value in series [1] (liver to plasma concentration 24 hours after dosing) was determined as 1526.
